Molecules are shown by their SMILES.

Series [1] in a line: General properties: behaviour when put into water. Format: physicochemical. The settings on record: solid put into water in a beaker.
The nature of series [2]: Solubility test c): 4-HAP + 3 wt. % 1,2-pentanediol (Hydrolite 5) + 5 wt. % glycerin in cold water. Format: physicochemical.
Series [3] can be described thus: Solubility test d): 4-HAP + 3 wt. % 1,2-pentanediol (Hydrolite 5) + 5 wt. % glycerin in warm water. The class given is physicochemical. The settings on record: for dissolution result: heating up to 50° C. and cooling down while stirring; for crystals on storage: stored at 5° C. and room temperature, after 24 h.
Series [4] in a line: Solubility test e): 4-HAP + 5 wt. % 1,2-pentanediol (Hydrolite 5) in cold water. Format: physicochemical. The settings on record: for dissolution result: after ca. 50 min.
The subject of series [5] is Aspergillus brasiliensis. The settings on record: when used in cosmetics; Daily Chemical Industry 2015, 45:269; cited from earlier work.
Series [6] deals with Pseudomonas aeruginosa. The settings on record: when used in cosmetics; Daily Chemical Industry 2015, 45:269; cited from earlier work.
Setting [7] is: 0.5 wt. % 4-HAP + 3 wt. % 1,2-pentanediol + 5 wt. % glycerin.
The mark [8] stands for this setting: 1 wt. % 4-HAP + 3 wt. % 1,2-pentanediol + 5 wt. % glycerin.
Where [9] appears, read: 0.5 wt. % 4-HAP + 5 wt. % 1,2-pentanediol.
The mark [10] stands for this setting: 1 wt. % 4-HAP + 5 wt. % 1,2-pentanediol.

With `CC(=O)c1ccc(O)cc1` [Example 4, 4-hydroxyacetophenone], the “behaviour when put into water” value in series [1] was “agglomerates and sinks to the ground”. Further, the “storage time after which crystallization/precipitation” value in series [2] (setting [7]) is listed as 48 h. In addition, the “time until solved completely” value in series [2] (setting [7]) is recorded as “ca. 50 min”. Moreover, the dissolution result in series [2] (1 wt. % 4-HAP + 3 wt. % 1,2-pentanediol + 5 wt. % glycerin, after stirring for 60 min) is given as “a few lumps of solid left undissolved”; in series [3] (setting [7]), “solved completely”; in series [3] (setting [8]), “solved completely”; in series [4] (setting [9]) it was “a few little lumps of solid left undissolved”; in series [4] (setting [10]), “lumps of solid left undissolved”. The crystals on storage result in series [3] (setting [7]) and in series [3] (setting [8]) was “no crystals” in each case.

`CC(=O)c1ccc(O)cc1` [Example 3, 4-hydroxyacetophenone]: in series [1], the “behaviour when put into water” value is “distributes on the surface and slowly falls to the ground of the beaker”. Besides, in series [2] (setting [7]), the “storage time after which crystallization/precipitation” value came out at 48 h. The “time until solved completely” value in series [2] (setting [7]), in series [2] (setting [8]), in series [4] (setting [9]) and in series [4] (setting [10]) was “ca. 50 min” each time. In addition, the crystallization/precipitation on storage entry was “no crystallization/precipitation” in series [2] (1 wt. % 4-HAP + 3 wt. % 1,2-pentanediol + 5 wt. % glycerin, after 24 h of storage) and “no crystallization/precipitation” in series [4] (0.5 wt. % 4-HAP + 5 wt. % 1,2-pentanediol, after 24 h of storage). In addition, the dissolution result in series [3] (setting [7]) and in series [3] (setting [8]) was “solved completely” each time. The crystals on storage result in series [3] (setting [7]) and in series [3] (setting [8]) was “no crystals” throughout. Also, in series [4] (1 wt. % 4-HAP + 5 wt. % 1,2-pentanediol, stored at 5° C.), the “storage time after which crystallization” value came to 24 h.

For `CC(=O)c1ccc(O)cc1` [4-hydroxyacetophenone], the “ability to kill Aspergillus brasiliensis” value in series [5] is on record as “great ability to kill”. Also, the “ability to restrain Pseudomonas aeruginosa” value in series [6] is recorded as “certain ability to restrain”.

The record behind these values is patent US10981854B2 (SYMRISE AG, priority 2016, dated 2021).
